Molecules are shown by their SMILES. pKi: −log10 of the molar value. Where two headings read alike, the source gives them in different places.

For assay [1], the target named is soluble human BACE1 catalytic domain (Homo sapiens (Human), UniProt P56817). The assay is described as follows: BACE1 HTRF FRET Assay. The settings on record: Ki calculated from IC50 using the Cheng-Prusoff equation; QSY7-APPswe-Eu substrate, pH 5.0. Type of assay: biochemical. The source says: A homogeneous time-resolved FRET assay can be used to determine IC50 values for inhibitors of the soluble human BACE1 catalytic domain. This assay monitors the increase of 620 nm fluorescence that resulted from BACE1 cleavage of an APPswedish APP^swe mutant peptide FRET substrate (QSY7-[…]-Europium-amide). This substrate contains an N-terminal QSY7 moiety that serves as a quencher of the C-terminal Europium fluorophore (620 nm Em). In the absence of enzyme activity, 620 nm fluorescence is low in the assay and increased linearly over 3 hours in the presence of uninhibited BACE1 enzyme Inhibition of BACE1 cleavage of the QSY7-APP^swe-Eu substrate by inhibitors is manifested as a suppression of 620 nm fluorescence.
Chain of soluble human BACE1 catalytic domain (P56817 75-416): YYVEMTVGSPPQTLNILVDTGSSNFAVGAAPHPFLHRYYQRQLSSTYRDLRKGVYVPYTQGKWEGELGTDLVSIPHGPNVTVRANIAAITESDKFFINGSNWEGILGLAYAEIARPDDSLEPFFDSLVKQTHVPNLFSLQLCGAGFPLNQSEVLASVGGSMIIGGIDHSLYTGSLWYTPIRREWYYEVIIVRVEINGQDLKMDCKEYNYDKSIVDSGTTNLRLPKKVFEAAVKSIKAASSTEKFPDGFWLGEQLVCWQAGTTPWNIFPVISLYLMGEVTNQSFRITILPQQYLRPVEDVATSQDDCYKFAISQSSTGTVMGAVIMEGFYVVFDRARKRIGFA
Reactions are initiated by addition of 10 μl of 600 nM QSY7-APP^swe-Eu substrate (200 nM final) to give a final reaction volume of 30 μl in a 384 well Nunc HTRF plate. The reactions are incubated at 30° C. for 1.5 hours. The 620 nm fluorescence is then read on a Rubystar HTRF plate reader (BMG Labtechnologies) using a 50 millisecond delay followed by a 400 millisecond acquisition time window Inhibitor IC50 values are derived from non-linear regression analysis of concentration response curves.

For assay [2], the target named is purified human autoBACE-2 (Homo sapiens (Human), UniProt Q9Y5Z0). The assay is described as follows: BACE-2 Assay (BACE-HTRF assay). Type of assay: biochemical. The settings on record: for pKi: read-out: BACE2 Ki; for Ki: BACE2 Ki (nM). The procedure: DMSO is present at 5% final concentration in the assay. Following laser excitation of sample wells at 320 nm, the fluorescence signal at 620 nm is collected for 400 ms following a 50 μs delay on a RUBYstar HTRF plate reader (BMG Labtechnologies). Raw RFU data is normalized to maximum (1.0 nM BACE/DMSO) and minimum (no enzyme/DMSO) RFU values. […] The Ki values are calculated from the IC50 using the Cheng-Prusoff equation.
Chain of purified human autoBACE-2 (Q9Y5Z0 63-473 limits assumed): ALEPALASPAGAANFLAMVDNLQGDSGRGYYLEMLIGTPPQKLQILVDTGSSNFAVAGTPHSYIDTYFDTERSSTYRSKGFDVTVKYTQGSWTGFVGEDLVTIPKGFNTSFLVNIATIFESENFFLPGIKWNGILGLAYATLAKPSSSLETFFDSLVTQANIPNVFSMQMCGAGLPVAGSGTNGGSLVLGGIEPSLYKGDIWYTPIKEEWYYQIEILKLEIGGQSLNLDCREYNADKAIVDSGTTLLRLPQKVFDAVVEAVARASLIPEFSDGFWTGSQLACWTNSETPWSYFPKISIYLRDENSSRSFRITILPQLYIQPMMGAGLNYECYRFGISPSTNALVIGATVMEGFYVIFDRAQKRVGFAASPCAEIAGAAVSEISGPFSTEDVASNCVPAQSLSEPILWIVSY

Turning to `Cn1ccc(C(=O)Nc2ccc(F)c([C@]34COC[C@H]3S(=O)(=O)C(C)(C)C(=N)N4)c2)n1` [Example 1e], the pKi in assay [1] is 7.89; in assay [2] it was 8.70.
The like results for `COCC(=O)Nc1ccc(F)c([C@]23COC[C@H]2S(=O)(=O)C(C)(C)C(=N)N3)c1` [Example 1m] were, in that order, 7.13 and 8.30.
The like results for `Cc1cc(C(=O)Nc2ccc(F)c([C@]34COC[C@H]3S(=O)(=O)C(C)(C)C(=N)N4)c2)no1` [Example 1f] were, in that order, 6.70 and 7.62.
In the case of `C[C@@]1(c2ccc(F)cc2)C(=N)N[C@@]2(c3cc(NC(=O)c4ccc(F)cn4)ccc3F)COC[C@H]2S1(=O)=O` [Example 8a], in assay [1], the pKi was 7.08. In assay [2], affinity was put at a Ki of 9 nM.
On to `CC1(C)C(=N)N[C@@]2(c3cc(NC(=O)C(F)F)ccc3F)COC[C@H]2S1(=O)=O` [Example 1n], for which the pKi in assay [1] is 6.59; in assay [2] it was 7.48.
On the same counts, the results for `CC1(C)C(=N)N[C@@]2(c3cc(NC(=O)c4ccn(C(F)F)n4)ccc3F)COC[C@H]2S1(=O)=O` [Example 1z] are 9.00 and 9.00.
Regarding `C[C@]1(C2CC2)C(=N)N[C@@]2(c3cc(NC(=O)c4ccc(F)cn4)ccc3F)COC[C@H]2S1(=O)=O` [Example 13b], the pKi in assay [1] was 7.21; in assay [2], 7.96.
On the same counts, the results for `CC1(C)C(=N)N[C@@]2(c3cc(NC(=O)c4ccc(Cl)cn4)ccc3F)COC[C@H]2S1(=O)=O` [Example 1b] are 8.60 and 9.00.
Consider `CC1(C)C(=N)N[C@@]2(c3cc(NC(=O)c4ccc(F)cn4)ccc3F)COC(CF)[C@H]2S1(=O)=O` (single isomer, unassigned) [Example 4a], for which the pKi in assay [1] is 8.52. The molecule also returned a Ki in assay [2] of 1 nM.
For the molecule `Cc1cc(C(=O)Nc2ccc(F)c([C@]34COC[C@H]3S(=O)(=O)C(C)(C)C(=N)N4)c2)on1` [Example 1i], the pKi is 6.25 in assay [1] and 7.03 in assay [2].
On the same counts, the results for `CC1(C)C(=N)N[C@@]2(c3cc(NC(=O)c4ccc(C(F)(F)F)cn4)ccc3F)COC[C@H]2S1(=O)=O` [Example 1aa] are 8.52 and 8.10.
The like results for `CC1(C)C(=N)N[C@@]2(c3cc(NC(=O)c4ccc(OCF)cn4)ccc3F)COC[C@H]2S1(=O)=O` [Example 1x] were, in that order, 8.52 and 8.70.
As for `CO[C@H](C)C(=O)Nc1ccc(F)c([C@]23COC[C@H]2S(=O)(=O)C(C)(C)C(=N)N3)c1` [Example 1p], the figures for the negative-log Ki (pKi) in assay [1] and in assay [2] were 6.82 and 7.80, respectively.
The like results for `Cc1cc(C#N)cnc1C(=O)Nc1ccc(F)c([C@]23COC[C@H]2S(=O)(=O)C(C)(C)C(=N)N3)c1` [Example 1u] were, in that order, 9.00 and 9.00.
The like results for `CO[C@@H](C)C(=O)Nc1ccc(F)c([C@]23COC[C@H]2S(=O)(=O)C(C)(C)C(=N)N3)c1` [Example 1o] were, in that order, 6.67 and 7.38.
Regarding `Cc1nc(C(=O)Nc2ccc(F)c([C@]34COC[C@H]3S(=O)(=O)C(C)(C)C(=N)N4)c2)c(C)o1` [Example 1l], the pKi in assay [1] was 8.22; in assay [2] it was 9.00.
The like results for `COc1cnc(C(=O)Nc2ccc(F)c([C@]34COC[C@H]3S(=O)(=O)C(C)(C)C(=N)N4)c2)c(C)n1` [Example 1t] were, in that order, 8.00 and 8.22.
Take `Cn1cc(C(=O)Nc2ccc(F)c([C@]34COC[C@H]3S(=O)(=O)C(C)(C)C(=N)N4)c2)c(C(F)(F)F)n1` [Example 1j]: the pKi in assay [1] was 5.96; in assay [2], 6.51.
Take `COc1cnc(C(=O)Nc2ccc(F)c([C@]34COC[C@H]3S(=O)(=O)C(C)(C)C(=N)N4)c2)cn1` [Example 1d]: the negative logarithm of the Ki (pKi) is 8.21 in assay [1] and 8.30 in assay [2].
The like results for `CC1(C)C(=N)N[C@@]2(c3cc(NC(=O)c4cnsn4)ccc3F)COC[C@H]2S1(=O)=O` [Example 1v] were, in that order, 8.10 and 9.00.
On the same counts, the results for `CC1(C)C(=N)N[C@@]2(c3cc(NC(=O)c4ccc(F)cn4)ccc3F)COC[C@H]2S1(=O)=O` [Example 1a] are 8.46 and 9.00.
Take `C[C@]1(c2ccc(F)cc2)C(=N)N[C@@]2(c3cc(NC(=O)c4ccc(F)cn4)ccc3F)COC[C@H]2S1(=O)=O` [Example 8b]: the pKi in assay [1] is 9.00. Besides, the Ki in assay [2] turned out to be 1 nM.
Turning to `CC1(C)C(=N)N[C@@]2(c3cc(NC(=O)c4cn5ccsc5n4)ccc3F)COC[C@H]2S1(=O)=O` [Example 1g], the pKi is 7.60 in assay [1] and 8.52 in assay [2].
In the case of `COc1cnc(C(=O)Nc2ccc(F)c([C@]34COC(CF)[C@H]3S(=O)(=O)C(C)(C)C(=N)N4)c2)cn1` (single isomer, unassigned) [Example 4e], the Ki in assay [2] was found to be 11 nM.
With `CC1(C)C(=N)N[C@@]2(c3cc(NC(=O)c4ccc(C#N)cn4)ccc3F)COC[C@H]2S1(=O)=O` [Example 1r], the pKi in assay [1] and in assay [2] was 9.00 throughout.
On to `C#CCOc1ccc(C(=O)Nc2ccc(F)c([C@]34COC[C@H]3S(=O)(=O)C(C)(C)C(=N)N4)c2)nc1` [Example 1y], for which the pKi in assay [1] was 9.00; in assay [2], 8.15.
On the same counts, the results for `COc1cnc(C(=O)Nc2ccc(F)c([C@]34COC[C@H]3S(=O)(=O)C(C)(C)C(=N)N4)c2)c(C)c1` [Example 1s] are 8.40 and 9.00.
As for `COc1cnc(C(=O)Nc2ccc(F)c([C@]34COC(CF)[C@H]3S(=O)(=O)C(C)(C)C(=N)N4)c2)cn1` (single isomer, unassigned) [Example 4h], affinity in assay [2] was put at a Ki of 476 nM.
On to `CC1(C)C(=N)N[C@@]2(c3cc(NC(=O)c4ncc(Cl)cc4F)ccc3F)COC[C@H]2S1(=O)=O` [Example 1k], for which the figures for the pKi in assay [1] and in assay [2] were 8.52 and 9.00, respectively.
The like results for `C#CCOc1cnc(C(=O)Nc2ccc(F)c([C@]34COC[C@H]3S(=O)(=O)C(C)(C)C(=N)N4)c2)cn1` [Example 1w] were, in that order, 9.00 and 8.70.
For `CC1(C)C(=N)N[C@@]2(c3cc(NC(=O)c4ccc(F)cn4)ccc3F)COC(CF)[C@H]2S1(=O)=O` (single isomer, unassigned) [Example 4b], the pKi in assay [1] was 7.38. Besides, the inhibitory constant (Ki) in assay [2] was 18 nM.
`C[C@@]1(C2CC2)C(=N)N[C@@]2(c3cc(NC(=O)c4ccc(F)cn4)ccc3F)COC[C@H]2S1(=O)=O` [Example 13a]: the values for the pKi in assay [1] and in assay [2] were 7.41 and 8.22, respectively.
Consider `CC1(C)C(=N)N[C@@]2(c3cc(NC(=O)c4cnc(OCCF)cn4)ccc3F)COC[C@H]2S1(=O)=O` [Example 1h], for which the pKi in assay [1] is 8.15; in assay [2], 7.74.
The like results for `COc1ccc(C(=O)Nc2ccc(F)c([C@]34COC[C@H]3S(=O)(=O)C(C)(C)C(=N)N4)c2)nc1` [Example 1c] were, in that order, 8.24 and 8.52.
As for `CC1(C)C(=N)N[C@@]2(c3cc(NC(=O)c4cnc(C(F)(F)F)cn4)ccc3F)COC[C@H]2S1(=O)=O` [Example 1q], the negative-log Ki (pKi) in assay [1] is 7.89; in assay [2], 7.46.
